Laboratory results published in paper PMC10120462, “Styrylquinazoline derivatives as ABL inhibitors selective for different DFG orientations” (Journal of Enzyme Inhibition and Medicinal Chemistry, 2023).

Tests used:
[1] = biological target: T1, BTK (Homo sapiens, UniProt Q06187); assay: Tyrosine kinase assay (Kinase Selectivity System TK-2, ADP-Glo); type: biochemical; conditions: 1 h incubation, mean ± SD of four experiments
T1 construct: purchased Promega

[2] = biological target: T2, Lyn B (Homo sapiens, UniProt P07948); assay: as above; type: biochemical; conditions: 1 h incubation, mean ± SD of four experiments
T2 construct: purchased Promega

[3] = biological target: T3, BRK (Homo sapiens, UniProt Q13882); assay: as above; type: biochemical; conditions: 1 h incubation, mean ± SD of four experiments
T3 construct: purchased Promega

[4] = tested on: K562 cells; assay: Immunoblotting; type: cell-based, human; conditions: 16 h
Source text: Changes in the expression of the BCR-ABL and ABL proteins and their downstream targets, such as STAT5, Src, Akt and Fyn after treatment with the tested compounds were also examined. As shown in Figure 7(B), no significant changes in the phosphorylation of BCR-ABL were observed after treatment with the tested styrylquinazolines. […] For reference inhibitors, there were greater changes in the expression of this protein. There were also interesting changes in the downstream targets of ABL, STAT5 and Src. […] Unfortunately, contrary to our assumptions and earlier results, IS1 was ineffective in inhibiting ABL, STAT5, and Src phosphorylation at the concentrations used. However, this derivative caused downregulation of Fyn expression, which could confirm its high inhibitory potential from in vitro kinase assays. […] Thus, these compounds were capable of blocking the pro-survival pathway facilitated by Akt kinase.
Prior to the experiment, K562 cells were seeded at a density of 500,000 cells per well in 3 cm Petri dishes (Nunc). […] After 16 h of exposure, cells were collected, centrifuged, and lysed on ice in complete RIPA buffer containing Halt Protease Inhibitor Cocktail, Halt Phosphatase Inhibitor Cocktail and 0.5 M EDTA (all from Thermo Scientific). Protein quantification was measured using a BCA Protein Assay Kit (Thermo Scientific) according to the manufacturer’s protocol. Equal amounts of the proteins were electrophoresed on SDS-page gels and transferred to nitrocellulose membranes. After blocking in 5% non-fat milk prepared in TTBS (Tris buffered saline with Tween 20), membranes were incubated overnight at 4 °C with specific primary antibodies (all from Cell Signalling) at a dilution of 1:1000 for c-ABL, phospho-c-ABL, Stat5, phospho-Stat5, cyclin E1, p27, PARP, AIF, BID, Src, Fyn, Akt, phospho-Akt, and at a dilution of 1:2000 for reference proteins (vinculin, β-actin and GAPDH). The next day, membranes were washed and incubated with horseradish peroxidase (HRP)-conjugated secondary antibodies for 1 h at room temperature. Chemiluminescence signals were recorded after staining with SuperSignal™ West Pico Chemiluminescent Substrate (Thermo Scientific) using a ChemiDoc™ XRS + System (BioRad). Experiments were performed four to five times. Densitometric analysis was performed using ImageJ software (Wayne Rasband, National Institutes of Health, USA).

[5] = tested on: K562 cells; assay: Cell cycle assay (Muse Cell-Cycle Kit, flow cytometry); type: cell-based, human; conditions: 16 h
Protocol: The interesting inhibitory potential of ABL kinase and the high antiproliferative activity of several styrylquinazoline derivatives prompted us to further investigate their mechanism of action.
K562 cells were seeded in 3 cm Petri dishes (Nunc) at a density of 150,000 cells per well and incubated under standard conditions at 37 °C for 24 h. […] After 16 h of treatment, assays were performed using a Muse Cell-Cycle Kit (Millipore) according to the supplier’s instructions. Briefly, leukaemia cells were collected, washed in cold PBS, and centrifuged. Cells were then fixed in ice-cold 70% ethanol and stored at −20 °C overnight. The next day, leukaemia cells were washed with cold PBS, centrifuged and resuspended in Muse™ Cell Cycle Reagent. Samples were incubated for 30 min at room temperature in the dark. After staining, the levels of cellular subpopulations in each cell cycle phase were determined using a Muse Cell Analyser (Millipore). Experiments were performed at least four times.

[6] = biological target: T4, CSK (Homo sapiens, UniProt P41240); assay: Tyrosine kinase assay (Kinase Selectivity System TK-2, ADP-Glo); type: biochemical; conditions: 1 h incubation, mean ± SD of four experiments
T4 construct: purchased Promega

[7] = tested on: K562 cells; assay: Analysis of mRNA expression (RT-qPCR); type: cell-based, human; conditions: 16 h; IS1 50 µM, IS8 12 µM, IS10 20 µM, imatinib 2 µM, GNF-2 2 µM
Source text: In the next step, the inhibitory potential of the tested compounds at the gene and protein levels was verified in K562 cells. For this purpose, we examined changes in the expression of the ABL signalling pathway and ABL downstream targets after exposure to IS1, IS8 and IS10. […] The enhanced transcription of the ABL gene might be related to the low protein level that was reached after exposure to the tested drugs. Thus, the cellular machinery could induce increased protein synthesis to counteract the effects of inhibition. […] The second gene studied, SRC, is involved in signal transduction from growth factors and receptors. Similar to ABL, the Src protein has oncogenic activity and is overexpressed in cancer cells. It is also important to emphasise that both kinases form a specific direct signalling network, as […].
Reverse transcription was carried out with 1 μg total RNA using a ProtoScript M-MuLV First Strand cDNA Synthesis Kit (New England BioLabs). The RT-qPCR was performed using a CTX96 Real-Time PCR Detection System (Biorad) in a 10 μL reaction volume containing Luna Universal qPCR Master Mix (New England BioLabs), specific primer pair mix and cDNA. The PCR reaction was performed as follows: initial denaturation at 95 °C for 60 s; followed by 40 cycles of denaturation at 95 °C, 15 s; annealing (primer-specific temperature for 30 s) and extension at 72 °C for 30 s. Melting curve analysis was used to determine the specific PCR products. The results were analysed based on comparison of the expression of the target genes with the reference gene – HPRT1 using the 2^−^ΔΔ^CT method. Experiments were performed at least four times.

[8] = biological target: T5, Fyn A (Homo sapiens, UniProt P06241); assay: Tyrosine kinase assay (Kinase Selectivity System TK-2, ADP-Glo); type: biochemical; conditions: 1 h incubation, mean ± SD of four experiments
T5 construct: purchased Promega
Source text: All newly synthesised derivatives were screened for their inhibitory potential towards eight non-receptor tyrosine kinases, such as ABL, BTK, BRK and Src family kinases, such as CSK, Lyn, Lck, Fyn and Src. […] To facilitate the analysis of the structure and enzymatic activity, all tested compounds were divided into four subgroups based on the main structural scaffolds (the general structure of each group is shown in the second column of Table 1). Series A, B, and C were subdivided according to the S^4-aryl substituent, while D represents the different styryl groups at the C^2-quinazoline position.
Herein, we used a kinase assay that contained fully expressed kinases with their regulatory domains, which are responsible for autoinhibition. The proteins are present in their unphosphorylated form and the procedure required supplementation with ATP. Importantly, autophosphorylation of ABL is dependent on […] concentration of the protein. Thus, our experimental conditions reflect the cellular process to be simulated. The luminescence signal detected after one hour of incubation with a peptide substrate was a measure of inhibition. Under these conditions, the question of whether the inhibitors tested bind to the ortho or allosteric site of the protein could be answered. […] To test this hypothesis, further molecular docking experiments were performed to more precisely determine the binding of the tested compounds to the ABL kinase.
To determine the inhibition of non-receptor tyrosine kinases, assays were performed using the kinase selectivity system TK-2 and the ADP-Glo Kinase Assay (both from Promega). The protocol was previously developed by our group and described in reports[12]^,[36]. Experiments were performed at least four times. Data are expressed as percentage of tyrosine kinase inhibitory activity after treatment with the derivatives tested.

T1 sequence (Q06187 whole entry): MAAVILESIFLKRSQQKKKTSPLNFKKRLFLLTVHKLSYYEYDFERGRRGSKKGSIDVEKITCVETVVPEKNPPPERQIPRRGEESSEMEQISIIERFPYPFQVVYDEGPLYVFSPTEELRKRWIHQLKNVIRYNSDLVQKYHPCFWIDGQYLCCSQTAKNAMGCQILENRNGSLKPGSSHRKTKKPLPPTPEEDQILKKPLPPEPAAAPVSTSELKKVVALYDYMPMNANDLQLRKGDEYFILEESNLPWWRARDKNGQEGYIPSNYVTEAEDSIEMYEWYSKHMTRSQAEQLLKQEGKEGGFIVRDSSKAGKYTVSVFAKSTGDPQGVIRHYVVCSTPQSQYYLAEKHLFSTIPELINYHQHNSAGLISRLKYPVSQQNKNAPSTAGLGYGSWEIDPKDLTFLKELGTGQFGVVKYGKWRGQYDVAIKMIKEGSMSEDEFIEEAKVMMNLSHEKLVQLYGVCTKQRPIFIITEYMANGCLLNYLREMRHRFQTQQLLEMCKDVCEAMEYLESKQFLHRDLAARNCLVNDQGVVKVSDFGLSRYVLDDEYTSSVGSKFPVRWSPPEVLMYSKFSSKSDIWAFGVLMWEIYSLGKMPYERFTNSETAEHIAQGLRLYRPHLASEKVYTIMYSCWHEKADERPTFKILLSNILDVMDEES
T5 sequence (P06241 whole entry): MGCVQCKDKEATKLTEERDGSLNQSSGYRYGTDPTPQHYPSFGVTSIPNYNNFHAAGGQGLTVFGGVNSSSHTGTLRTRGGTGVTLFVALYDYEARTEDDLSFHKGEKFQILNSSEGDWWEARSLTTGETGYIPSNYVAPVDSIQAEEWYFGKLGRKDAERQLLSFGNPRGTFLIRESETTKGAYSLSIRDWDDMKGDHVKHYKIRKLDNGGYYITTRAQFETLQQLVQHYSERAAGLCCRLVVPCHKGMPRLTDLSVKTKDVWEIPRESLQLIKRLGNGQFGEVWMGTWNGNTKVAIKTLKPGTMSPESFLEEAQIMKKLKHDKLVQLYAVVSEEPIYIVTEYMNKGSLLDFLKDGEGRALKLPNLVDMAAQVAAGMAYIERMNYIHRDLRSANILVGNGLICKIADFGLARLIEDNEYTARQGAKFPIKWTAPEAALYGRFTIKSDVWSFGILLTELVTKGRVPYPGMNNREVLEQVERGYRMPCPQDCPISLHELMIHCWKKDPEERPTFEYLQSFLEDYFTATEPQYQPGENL
T3 sequence (Q13882 whole entry): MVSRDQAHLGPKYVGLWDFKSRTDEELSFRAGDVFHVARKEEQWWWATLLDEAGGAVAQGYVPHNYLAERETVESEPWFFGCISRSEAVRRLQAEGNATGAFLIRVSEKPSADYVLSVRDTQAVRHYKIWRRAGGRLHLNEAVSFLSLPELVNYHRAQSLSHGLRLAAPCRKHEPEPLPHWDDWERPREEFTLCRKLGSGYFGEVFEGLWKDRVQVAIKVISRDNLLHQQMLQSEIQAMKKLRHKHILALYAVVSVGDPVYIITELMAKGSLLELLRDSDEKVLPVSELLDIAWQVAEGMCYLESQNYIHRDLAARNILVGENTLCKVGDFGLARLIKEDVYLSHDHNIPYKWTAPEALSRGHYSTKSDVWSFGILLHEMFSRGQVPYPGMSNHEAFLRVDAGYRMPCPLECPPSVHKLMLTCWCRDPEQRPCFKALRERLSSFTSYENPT
T2 sequence (P07948 1-491 isoform P07948-2): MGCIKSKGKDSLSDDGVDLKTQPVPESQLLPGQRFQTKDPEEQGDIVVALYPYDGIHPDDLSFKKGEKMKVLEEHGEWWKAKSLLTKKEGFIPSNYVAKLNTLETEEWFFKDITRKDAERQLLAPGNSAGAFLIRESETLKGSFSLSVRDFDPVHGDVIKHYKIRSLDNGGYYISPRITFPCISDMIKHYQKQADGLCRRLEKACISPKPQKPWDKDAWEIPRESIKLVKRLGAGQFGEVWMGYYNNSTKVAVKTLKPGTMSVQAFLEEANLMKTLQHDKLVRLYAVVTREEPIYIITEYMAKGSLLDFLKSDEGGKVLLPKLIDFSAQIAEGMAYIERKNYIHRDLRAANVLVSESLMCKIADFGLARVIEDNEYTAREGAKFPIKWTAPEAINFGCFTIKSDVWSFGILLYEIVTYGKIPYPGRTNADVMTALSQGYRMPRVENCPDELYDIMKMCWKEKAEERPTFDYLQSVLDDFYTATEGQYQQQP
T4 sequence (P41240 whole entry): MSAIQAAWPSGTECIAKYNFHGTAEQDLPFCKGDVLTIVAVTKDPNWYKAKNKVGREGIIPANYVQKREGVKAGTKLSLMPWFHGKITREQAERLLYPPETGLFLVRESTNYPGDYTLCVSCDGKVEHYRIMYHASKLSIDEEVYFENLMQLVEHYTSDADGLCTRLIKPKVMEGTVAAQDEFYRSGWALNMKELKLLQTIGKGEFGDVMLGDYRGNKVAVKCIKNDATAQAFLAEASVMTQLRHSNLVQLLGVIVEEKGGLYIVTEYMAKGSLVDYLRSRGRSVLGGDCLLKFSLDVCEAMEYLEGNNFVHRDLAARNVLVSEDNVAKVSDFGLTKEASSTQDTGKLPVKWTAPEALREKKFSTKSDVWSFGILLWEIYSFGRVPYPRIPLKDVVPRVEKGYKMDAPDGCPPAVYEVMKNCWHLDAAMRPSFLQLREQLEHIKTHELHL

Cc1ccc(NC(=O)c2ccc(CN3CCN(C)CC3)cc2)cc1Nc1nccc(-c2cccnc2)n1 [Imatinib, imatinib, reference compound]
inhibition at 0.5 µM [1]: 0%
inhibition at 0.5 µM [2]: 0%
inhibition at 0.5 µM [3]: 0%
AIF protein [4]: significant increase
Src protein expression / phosphorylation [4]: significant accumulation
STAT5 phosphorylation ([4]; at the concentrations used): stronger effect
Cell cycle arrest (phase) [5]: inhibition of G0/G1 phase
inhibition at 0.5 µM [6]: 0%
CCNE2 expression (mRNA) [7]: increase
Expression of the ABL gene (mRNA) [7]: slight non-significant decrease
SRC mRNA levels [7]: significant decrease
inhibition at 0.5 µM [8]: 0%
